Measurements published in the supplement of paper PMC7108870.

Tests used:
HEK293sieSTAT3(Y640F) [1] = assay: drug sensitivity score (DSS), cytotoxicity CellTox Green (DSS (dimensionless)); higher = more cytotoxic; extreme values may be limits of the assay; settings: 72 h; STAT3 variant: Y640F (constitutively active)
In short: (§1)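 HEK293 cells carrying a STAT3-dependent luciferase reporter and overexpressing wild-type or mutant STAT3 (20 μl at 100,000 cells/ml) were added to compounds acoustically pre-plated at 5 concentrations in 10-fold dilutions in 384-well plates. After 72 hours at 37°C and 5% CO2, CellTox Green fluorescence (485/520 nm) and then CellTiter-Glo luminescence were read on a PHERAstar FS. Values were normalised to negative and positive control wells, and a drug sensitivity score based on dose-response curve area was computed in Breeze. Each value comes from one representative of two experiments.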

HEK293sieSTAT3(wt) [2] = assay: as above; settings: 72 h; STAT3 variant: wild type
In short: as §1

HEK293sieSTAT3(Y640F) [3] = assay: drug sensitivity score (DSS), viability CellTiter-Glo (DSS (dimensionless)); higher = more growth inhibition; extreme values may be limits of the assay; settings: 72 h; STAT3 variant: Y640F (constitutively active)
In short: as §1

HEK293sieSTAT3(wt) [4] = assay: as above; settings: 72 h; STAT3 variant: wild type
In short: as §1

| SMILES | drug sensitivity score (HEK293sieSTAT3(Y640F) [1]) | drug sensitivity score (HEK293sieSTAT3(wt) [2]) | drug sensitivity score (HEK293sieSTAT3(Y640F) [3]) | drug sensitivity score (HEK293sieSTAT3(wt) [4]) |
| --- | --- | --- | --- | --- |
| CCc1cc(Nc2nccc(-c3c(-c4ccc(OC)c(C(=O)Nc5c(F)cccc5F)c4)nc4ccccn34)n2)c(OC)cc1N1CCC(N2CCN(S(C)(=O)=O)CC2)CC1 (top concentration tested 10000 nM) | 0 | 0 | 10.9 | 9.73 |
| CCc1cncnc1N1CCN(Cc2nc3ccc(C(F)(F)F)cc3[nH]2)CC1 (top concentration tested 10000 nM) | 1.05 | 0.48 | 2.33 | 1.35 |
| CCn1c(-c2nonc2N)nc2cnc(Oc3cccc(NC(=O)c4ccc(OCCN5CCOCC5)cc4)c3)cc21 (top concentration tested 10000 nM) | 0.98 | 1.34 | 7.47 | 6.32 |
| CN(c1ccccc1CNc1nc(Nc2ccc3c(c2)CC(=O)N3)ncc1C(F)(F)F)S(C)(=O)=O (top concentration tested 10000 nM) | 1.46 | 6.16 | 10.1 | 11.2 |
| O=C(O)c1ccc(-c2c[nH]c3ncc(-c4ccccc4)cc23)cc1C1CCCC1 (top concentration tested 10000 nM) | 0 | 3.29 | 2.42 | 3.17 |
| C[C@@H]1CN(CC(=O)Nc2ccc3c(c2)Cc2cccc(-c4cc(=O)cc(N5CCOCC5)o4)c2S3)C[C@H](C)O1 (top concentration tested 25000 nM) | 5.17 | 8.78 | 8.24 | 9.16 |
| NCC(=O)Nc1ccc(-n2nc(C(F)(F)F)cc2-c2ccc3c(ccc4ccccc43)c2)cc1 (top concentration tested 25000 nM) | 5.9 | 7.25 | 13.5 | 16.3 |
| Cc1ccc2nc(CN(CCN(Cc3nc4ccc(C)cc4[nH]3)Cc3nc4ccc(C)cc4[nH]3)Cc3nc4ccc(C)cc4[nH]3)[nH]c2c1 (top concentration tested 50000 nM) | 3.51 | 5.64 | 4.22 | 3.52 |
| Cc1nn(C)c(COc2ccc(N3CCN(S(=O)(=O)N(C)C)CC3)cc2)c1-c1cccc2c(CCCOc3cccc4ccccc34)c(C(=O)O)n(CCN3CCOCC3)c12 (top concentration tested 50000 nM) | 7.51 | 7.01 | 9.56 | 5.26 |
| O=c1cc(N2CCOCC2)oc2c(-c3ccccc3)cccc12 (top concentration tested 100000 nM) | 2.63 | 5.12 | 10.6 | 11.8 |
| Oc1c2ccccc2c2c3c(cccc13)N=N2 (top concentration tested 100000 nM) | 0.97 | 2.91 | 7.42 | 6.18 |
| Cn1cc(C[C@@H](N)C(=O)O)c2ccccc21 [1-methyl-D-tryptophan] (top concentration tested 5000 nM) | 0 | 0 | 0 | 0 |
| COc1cc2c(cc1O)CC[C@@H]1[C@@H]2CC[C@]2(C)[C@@H](O)CC[C@@H]12 [2-methoxyestradiol] (top concentration tested 10000 nM) | 0 | 5.9 | 6.57 | 10.6 |
| CC/C(=C(\c1ccc(O)cc1)c1ccc(OCCN(C)C)cc1)c1ccccc1 [4-hydroxytamoxifen] (top concentration tested 10000 nM) | 6.81 | 7.36 | 6.34 | 7.39 |
| Nc1ncnc2c1nc(N)n2[C@@H]1O[C@H](CO)[C@@H](O)[C@H]1O [8-amino-adenosine] (top concentration tested 50000 nM) | 11.1 | 15.1 | 21.9 | 23.9 |
| Nc1ncnc2c1nc(Cl)n2[C@@H]1O[C@H](CO)[C@@H](O)[C@H]1O [8-chloro-adenosine] (top concentration tested 50000 nM) | 2.41 | 7.97 | 16.2 | 18.4 |
| CCCCC/C=C/C=C1/C(=O)C=C[C@@H]1C/C=C\CCCC(=O)O [15D-PGJ2] (top concentration tested 3000 nM) | 0 | 0 | 1.33 | 0 |
| COc1cc(O)c2c(c1)/C=C/C[C@H](O)[C@H](O)C(=O)/C=C\C[C@H](C)OC2=O [(5Z)-7-Oxozeaenol] (top concentration tested 10000 nM) | 2.58 | 6.67 | 3.74 | 4.51 |
| COc1ccc(S(=O)(=O)Nc2cccnc2Nc2ccc(O)cc2)cc1 [ABT-751] (top concentration tested 10000 nM) | 2.68 | 9.49 | 11.4 | 14.3 |
| Cc1ccccc1C(C(=O)NC1CCCCC1)N(C(=O)Cn1ccnc1C)c1cccc(F)c1 (stereo not given) [AGI-5198] (top concentration tested 10000 nM) | 0 | 0 | 0.76 | 1.02 |
| O=C(Nc1cccc(C(F)(F)F)c1)Nc1cc(S(=O)(=O)NC2CC2)ccc1-c1ccsc1 [AGI-6780] (top concentration tested 10000 nM) | 0 | 1.62 | 1.05 | 2.88 |
| COc1ccc2c(OCc3nnc4ccc(-c5ccccc5)nn34)ccnc2c1 [AMG-208] (top concentration tested 2500 nM) | 0.89 | 0.89 | 1.58 | 0.59 |
| CC(C)[C@@H](CS(=O)(=O)C(C)C)N1C(=O)[C@@](C)(CC(=O)O)C[C@H](c2cccc(Cl)c2)[C@H]1c1ccc(Cl)cc1 [AMG-232] (top concentration tested 1000 nM) | 0 | 0 | 0 | 0 |

| SMILES | drug sensitivity score (HEK293sieSTAT3(Y640F) [1]) | drug sensitivity score (HEK293sieSTAT3(wt) [2]) | drug sensitivity score (HEK293sieSTAT3(Y640F) [3]) | drug sensitivity score (HEK293sieSTAT3(wt) [4]) |
| --- | --- | --- | --- | --- |
| Cc1csc(-c2nnc(Nc3ccc(Oc4ncccc4-c4ccnc(N)n4)cc3)c3ccccc23)c1 [AMG-900] (top concentration tested 1000 nM) | 0 | 0 | 4.35 | 3.01 |
| CC1CCC(n2c3cnccc3c3cnc(Nc4ccc5c(n4)CCN(C(=O)CO)C5)nc32)CC1 (stereo not given) [AMG-925] (top concentration tested 1000 nM) | 0 | 2.08 | 5.44 | 5.61 |
| COCC1(CO)C(=O)C2CCN1CC2 (stereo not given) [APR-246] (top concentration tested 10000 nM) | 0 | 0 | 0 | 1.99 |
| CC(C)[C@H](C(=O)Nc1ccc(C(=O)NO)cc1)c1ccccc1 [AR-42] (top concentration tested 10000 nM) | 5.41 | 8.7 | 14.4 | 16.5 |
| CNC(=O)c1ccc(N2C(=S)N(c3cnc(C#N)c(C(F)(F)F)c3)C(=O)C23CCC3)cc1F [ARN 509] (top concentration tested 10000 nM) | 0 | 0 | 2.68 | 2.33 |
| COc1cc(N2CCC(N3CCN(C)CC3)CC2)ccc1Nc1ncnc(Nc2ccccc2S(=O)(=O)C(C)C)n1 [ASP3026] (top concentration tested 10000 nM) | 0.7 | 4.8 | 7.3 | 8.01 |
| O=C(NC1CCNCC1)c1n[nH]cc1NC(=O)c1c(Cl)cccc1Cl [AT7519] (top concentration tested 10000 nM) | 4.11 | 12.2 | 16.7 | 18.6 |
| O=C(Nc1c[nH]nc1-c1nc2ccc(CN3CCOCC3)cc2[nH]1)NC1CC1 [AT9283] (top concentration tested 1000 nM) | 0 | 0.75 | 0.91 | 1.49 |
| CN[C@@H](C)C(=O)N[C@H]1CN(C(=O)CC(C)C)CC[C@H]2CC[C@@H](C(=O)NC(c3ccccc3)c3ccccc3)N2C1=O [AT-406] (top concentration tested 10000 nM) | 12.6 | 33.2 | 8.75 | 17.9 |
| CC[C@H](CC#N)OC(=O)N[C@@H](C)c1cccc(NC(=O)Nc2ccc(-c3cnco3)c(OC)c2)c1 [AVN944] (top concentration tested 10000 nM) | 1.07 | 6.87 | 17.1 | 20.7 |
| COc1cc(N2CCN(C)CC2)ccc1Nc1nccc(-c2cn(C)c3cnccc23)n1 [AZ191] (top concentration tested 10000 nM) | 1.68 | 2.77 | 6.19 | 4.19 |
| COc1cc(OC2CCN(C)CC2)ccc1Nc1ncc2c(n1)n(C1CCCC1)c(=O)n2C [AZ 3146] (top concentration tested 10000 nM) | 4.52 | 11.4 | 8.94 | 11.3 |
| CC(C)Oc1cc(Nc2nc(N[C@@H](C)c3ccc(F)cn3)ncc2Cl)n[nH]1 [AZ-23] (top concentration tested 1000 nM) | 0 | 1.27 | 3.11 | 6.5 |
| N[C@@H]1CCCN(c2c(/C=C3\SC(=O)NC3=O)cccc2-c2ccccc2)C1 [AZD1208] (top concentration tested 10000 nM) | 0 | 0 | 0 | 0 |
| Cc1cc(Nc2nc(N[C@@H](C)c3ncc(F)cn3)ncc2Cl)[nH]n1 [AZD1480] (top concentration tested 1000 nM) | 0.04 | 0.43 | 0 | 0.06 |
| CNC(=O)c1cccc(-c2ccc3c(N4CCOC[C@@H]4C)nc(N4CCOC[C@@H]4C)nc3n2)c1 [AZD2014] (top concentration tested 10000 nM) | 0 | 4.19 | 18 | 20.1 |
| COc1cc(CCc2cc(NC(=O)c3ccc(N4CC(C)NC(C)C4)cc3)n[nH]2)cc(OC)c1 (stereo not given) [AZD4547] (top concentration tested 1000 nM) | 0 | 0.01 | 1.23 | 0.43 |
| CN(C)C(=O)c1ccc(S(=O)(=O)c2ccc(NC(=O)[C@@](C)(O)C(F)(F)F)c(Cl)c2)cc1 [AZD7545] (top concentration tested 10000 nM) | 0 | 0 | 0.82 | 0.28 |
| NC(=O)Nc1cc(-c2cccc(F)c2)sc1C(=O)N[C@H]1CCCNC1 [AZD7762] (top concentration tested 1000 nM) | 4.24 | 7.16 | 14.9 | 16.8 |
| COc1ccc(-c2ccc3c(N4CCOC[C@@H]4C)nc(N4CCOC[C@@H]4C)nc3n2)cc1CO [AZD8055] (top concentration tested 10000 nM) | 0 | 3.7 | 25.7 | 26.8 |
| N#Cc1ccc2[nH]c(O)c(-c3ccc(CN4CCOCC4)cn3)c2c1 [AZD-1080] (top concentration tested 10000 nM) | 0 | 2.84 | 1.14 | 0.74 |
| Cc1ncc(-c2ccnc(Nc3ccc(S(C)(=O)=O)cc3)n2)n1C(C)C [AZD-5438] (top concentration tested 10000 nM) | 5.66 | 13.8 | 9.27 | 15.4 |
